Source: PubChem BioAssay AID2060330 (Molecular Pharmacology Branch, DTP, NCI, 2025)

System: LG0703-F948-PDC spheroids with HUVEC/MSC, viability
Assay: Anticancer human tumor LG0703-F948-PDC patient-derived lung adenocarcinoma cell line growth inhibition [IpAb]
Settings: for IC50: curve of first compound; for viability, T/C: stronger effect = lower value
Outline: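 Spheroids of 60% malignant cells, 25% HUVEC and 15% MSC were exposed to targeted agents combined with ipatasertib or abemaciclib. Doses started at or near clinical Cmax (10 microM when unknown) and fell in half-log steps.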

[1] = second compound 0.01 µM, first compound 0.00949 µM
[2] = second compound 0.01 µM, first compound 0.03 µM
[3] = second compound 0.01 µM, first compound 0.0949 µM
[4] = second compound 0.01 µM, first compound 0.3 µM
[5] = second compound 0.0316 µM, first compound 0.00949 µM
[6] = second compound 0.0316 µM, first compound 0.03 µM
[7] = second compound 0.0316 µM, first compound 0.0949 µM
[8] = second compound 0.0316 µM, first compound 0.3 µM
[9] = second compound 0.1 µM, first compound 0.00949 µM
[10] = second compound 0.1 µM, first compound 0.03 µM
[11] = second compound 0.1 µM, first compound 0.0949 µM
[12] = second compound 0.1 µM, first compound 0.3 µM
[13] = second compound 0.316 µM, first compound 0.00949 µM
[14] = second compound 0.316 µM, first compound 0.03 µM
[15] = second compound 0.316 µM, first compound 0.0949 µM
[16] = second compound 0.316 µM, first compound 0.3 µM
[17] = second compound 1 µM, first compound 0.00949 µM
[18] = second compound 1 µM, first compound 0.03 µM
[19] = second compound 1 µM, first compound 0.0949 µM
[20] = second compound 1 µM, first compound 0.3 µM
[21] = second compound 0.01 µM, first compound 0.0316 µM
[22] = second compound 0.01 µM, first compound 0.1 µM
[23] = second compound 0.01 µM, first compound 0.316 µM
[24] = second compound 0.01 µM, first compound 1 µM
[25] = second compound 0.0316 µM, first compound 0.0316 µM
[26] = second compound 0.0316 µM, first compound 0.1 µM
[27] = second compound 0.0316 µM, first compound 0.316 µM
[28] = second compound 0.0316 µM, first compound 1 µM
[29] = second compound 0.1 µM, first compound 0.0316 µM
[30] = second compound 0.1 µM, first compound 0.1 µM
[31] = second compound 0.1 µM, first compound 0.316 µM
[32] = second compound 0.1 µM, first compound 1 µM
[33] = second compound 0.316 µM, first compound 0.0316 µM
[34] = second compound 0.316 µM, first compound 0.1 µM
[35] = second compound 0.316 µM, first compound 0.316 µM
[36] = second compound 0.316 µM, first compound 1 µM
[37] = second compound 1 µM, first compound 0.0316 µM
[38] = second compound 1 µM, first compound 0.1 µM
[39] = second compound 1 µM, first compound 0.316 µM
[40] = second compound 1 µM, first compound 1 µM
[41] = second compound 0.01 µM, first compound 3.16 µM
[42] = second compound 0.01 µM, first compound 10 µM
[43] = second compound 0.0316 µM, first compound 3.16 µM
[44] = second compound 0.0316 µM, first compound 10 µM
[45] = second compound 0.1 µM, first compound 3.16 µM
[46] = second compound 0.1 µM, first compound 10 µM
[47] = second compound 0.316 µM, first compound 3.16 µM
[48] = second compound 0.316 µM, first compound 10 µM
[49] = second compound 1 µM, first compound 3.16 µM
[50] = second compound 1 µM, first compound 10 µM
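Further: spheroids exposed to compounds for seven days before readout.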
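Wherever viability, T/C is given: T/C percent relative to DMSO vehicle wells set as 100% viability.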

CC(=O)c1c(C)c2cnc(Nc3ccc(N4CCNCC4)cn3)nc2n(C2CCCC2)c1=O + CCN1CCN(Cc2ccc(Nc3ncc(F)c(-c4cc(F)c5nc(C)n(C(C)C)c5c4)n3)nc2)CC1
IC50 (second compound 0.01 µM): > 300 nM
IC50 (second compound 0.0316 µM): > 300 nM
IC50 (second compound 0.1 µM): > 300 nM
IC50 (second compound 0.316 µM): > 300 nM
IC50 (second compound 1 µM): > 300 nM
viability, T/C (second compound 0.01 µM, first compound 0.000949 µM): 106%
viability, T/C (second compound 0.01 µM, first compound 0.003 µM): 102%
viability, T/C [1]: 92%
viability, T/C [2]: 89.5%
viability, T/C [3]: 88.7%
viability, T/C [4]: 83.9%
viability, T/C (second compound 0.0316 µM, first compound 0.000949 µM): 97.9%
viability, T/C (second compound 0.0316 µM, first compound 0.003 µM): 85.7%
viability, T/C [5]: 84.5%
viability, T/C [6]: 97.8%
viability, T/C [7]: 83.5%
viability, T/C [8]: 76.8%
viability, T/C (second compound 0.1 µM, first compound 0.000949 µM): 81.7%
viability, T/C (second compound 0.1 µM, first compound 0.003 µM): 77.7%
viability, T/C [9]: 71.6%
viability, T/C [10]: 81.9%
viability, T/C [11]: 92.1%
viability, T/C [12]: 70.5%
viability, T/C (second compound 0.316 µM, first compound 0.000949 µM): 89.1%
viability, T/C (second compound 0.316 µM, first compound 0.003 µM): 86.8%
viability, T/C [13]: 88%
viability, T/C [14]: 90.9%
viability, T/C [15]: 84.7%
viability, T/C [16]: 81.4%
viability, T/C (second compound 1 µM, first compound 0.000949 µM): 82.3%
viability, T/C (second compound 1 µM, first compound 0.003 µM): 77.3%
viability, T/C [17]: 54.4%
viability, T/C [18]: 83%
viability, T/C [19]: 86.4%
viability, T/C [20]: 79.7%

CC(C)(C)c1cnc(CSc2cnc(NC(=O)C3CCNCC3)s2)o1 + CCN1CCN(Cc2ccc(Nc3ncc(F)c(-c4cc(F)c5nc(C)n(C(C)C)c5c4)n3)nc2)CC1
IC50 (second compound 0.01 µM): 77 nM
IC50 (second compound 0.0316 µM): 50.9 nM
IC50 (second compound 0.1 µM): 51.7 nM
IC50 (second compound 0.316 µM): 39.4 nM
IC50 (second compound 1 µM): 31.9 nM
viability, T/C [1]: 98.5%
viability, T/C [2]: 86%
viability, T/C [3]: 43%
viability, T/C [4]: 0.52%
viability, T/C (second compound 0.01 µM, first compound 0.949 µM): 0.27%
viability, T/C (second compound 0.01 µM, first compound 3 µM): 0.36%
viability, T/C [5]: 79.2%
viability, T/C [6]: 67.3%
viability, T/C [7]: 29.3%
viability, T/C [8]: 0.36%
viability, T/C (second compound 0.0316 µM, first compound 0.949 µM): 0.13%
viability, T/C (second compound 0.0316 µM, first compound 3 µM): 0.27%
viability, T/C [9]: 74.1%
viability, T/C [10]: 71.5%
viability, T/C [11]: 25.9%
viability, T/C [12]: 0.39%
viability, T/C (second compound 0.1 µM, first compound 0.949 µM): 0.19%
viability, T/C (second compound 0.1 µM, first compound 3 µM): 0.29%
viability, T/C [13]: 76.2%
viability, T/C [14]: 62%
viability, T/C [15]: 11.2%
viability, T/C [16]: 0.34%
viability, T/C (second compound 0.316 µM, first compound 0.949 µM): 0.2%
viability, T/C (second compound 0.316 µM, first compound 3 µM): 0.3%
viability, T/C [17]: 77.1%
viability, T/C [18]: 48.5%
viability, T/C [19]: 29.2%
viability, T/C [20]: 0.4%
viability, T/C (second compound 1 µM, first compound 0.949 µM): 0.41%
viability, T/C (second compound 1 µM, first compound 3 µM): 0.31%

COc1c(OCCCN2CCOCC2)ccc2c3n(c(=NC(=O)c4cnc(N)nc4)nc12)CCN3 + CCN1CCN(Cc2ccc(Nc3ncc(F)c(-c4cc(F)c5nc(C)n(C(C)C)c5c4)n3)nc2)CC1
IC50 (second compound 0.01 µM): 36.7 nM
IC50 (second compound 0.0316 µM): 32.2 nM
IC50 (second compound 0.1 µM): 30.6 nM
IC50 (second compound 0.316 µM): 25.3 nM
IC50 (second compound 1 µM): 17 nM
viability, T/C (second compound 0.01 µM, first compound 0.00316 µM): 101%
viability, T/C (second compound 0.01 µM, first compound 0.01 µM): 79.2%
viability, T/C [21]: 58.3%
viability, T/C [22]: 20.7%
viability, T/C [23]: 5.32%
viability, T/C [24]: 3.66%
viability, T/C (second compound 0.0316 µM, first compound 0.00316 µM): 90.4%
viability, T/C (second compound 0.0316 µM, first compound 0.01 µM): 82.8%
viability, T/C [25]: 47.6%
viability, T/C [26]: 22.8%
viability, T/C [27]: 4.08%
viability, T/C [28]: 3.07%
viability, T/C (second compound 0.1 µM, first compound 0.00316 µM): 85.4%
viability, T/C (second compound 0.1 µM, first compound 0.01 µM): 77.1%
viability, T/C [29]: 48%
viability, T/C [30]: 21.2%
viability, T/C [31]: 5.61%
viability, T/C [32]: 3.57%
viability, T/C (second compound 0.316 µM, first compound 0.00316 µM): 81.6%
viability, T/C (second compound 0.316 µM, first compound 0.01 µM): 71.2%
viability, T/C [33]: 43.7%
viability, T/C [34]: 23.7%
viability, T/C [35]: 9.48%
viability, T/C [36]: 9.41%
viability, T/C (second compound 1 µM, first compound 0.00316 µM): 82.3%
viability, T/C (second compound 1 µM, first compound 0.01 µM): 63%
viability, T/C [37]: 33.9%
viability, T/C [38]: 24.6%
viability, T/C [39]: 19.3%
viability, T/C [40]: 11.8%

Cc1nc(NC(=O)N2CCCC2C(N)=O)sc1-c1ccnc(C(C)(C)C(F)(F)F)c1 (stereo not given) + CCN1CCN(Cc2ccc(Nc3ncc(F)c(-c4cc(F)c5nc(C)n(C(C)C)c5c4)n3)nc2)CC1
IC50 (second compound 0.01 µM): 1480 nM
IC50 (second compound 0.0316 µM): 1120 nM
IC50 (second compound 0.1 µM): 676 nM
IC50 (second compound 0.316 µM): 955 nM
IC50 (second compound 1 µM): 421 nM
viability, T/C [21]: 93.3%
viability, T/C [22]: 88.1%
viability, T/C [23]: 81.3%
viability, T/C [24]: 61.2%
viability, T/C [41]: 28.8%
viability, T/C [42]: 3.09%
viability, T/C [25]: 95.3%
viability, T/C [26]: 78.9%
viability, T/C [27]: 64.9%
viability, T/C [28]: 60.9%
viability, T/C [43]: 25.5%
viability, T/C [44]: 2.8%
viability, T/C [29]: 83.6%
viability, T/C [30]: 83.2%
viability, T/C [31]: 49.9%
viability, T/C [32]: 46.4%
viability, T/C [45]: 33%
viability, T/C [46]: 3.21%
viability, T/C [33]: 81.9%
viability, T/C [34]: 79.3%
viability, T/C [35]: 60.9%
viability, T/C [36]: 50.8%
viability, T/C [47]: 30.6%
viability, T/C [48]: 9.55%
viability, T/C [37]: 75.8%
viability, T/C [38]: 65.5%
viability, T/C [39]: 40.8%
viability, T/C [40]: 50%
viability, T/C [49]: 32.6%
viability, T/C [50]: 12.4%

Cn1nccc1Nc1nccc(-c2ccn(C(CO)c3ccc(Cl)c(F)c3)c(=O)c2)n1 (stereo not given) + CCN1CCN(Cc2ccc(Nc3ncc(F)c(-c4cc(F)c5nc(C)n(C(C)C)c5c4)n3)nc2)CC1
IC50 (second compound 0.01 µM): > 10000 nM
IC50 (second compound 0.0316 µM): 6420 nM
IC50 (second compound 0.1 µM): > 10000 nM
IC50 (second compound 0.316 µM): 7430 nM
IC50 (second compound 1 µM): > 10000 nM
viability, T/C [21]: 90.8%
viability, T/C [22]: 77%
viability, T/C [23]: 78.3%
viability, T/C [24]: 67.7%
viability, T/C [41]: 76.7%
viability, T/C [42]: 68%
viability, T/C [25]: 89.9%
viability, T/C [26]: 77.5%
viability, T/C [27]: 65%
viability, T/C [28]: 63%
viability, T/C [43]: 76.6%
viability, T/C [44]: 34.8%
viability, T/C [29]: 81.9%
viability, T/C [30]: 73.4%
viability, T/C [31]: 55.9%
viability, T/C [32]: 58.9%
viability, T/C [45]: 62.3%
viability, T/C [46]: 46.6%
viability, T/C [33]: 73%
viability, T/C [34]: 77.2%
viability, T/C [35]: 56.6%
viability, T/C [36]: 69.2%
viability, T/C [47]: 63.4%
viability, T/C [48]: 45.4%
viability, T/C [37]: 73.9%
viability, T/C [38]: 64.2%
viability, T/C [39]: 45.9%
viability, T/C [40]: 61.6%
viability, T/C [49]: 66.2%
viability, T/C [50]: 51%
